Results published in patent publication US20240287076A1, “COMPOUNDS FOR TARGETING DEGRADATION OF BRUTON'S TYROSINE KINASE” (BIOGEN MA INC., priority 2021, published 2024).

molecular target: T1, BTK (Homo sapiens, UniProt Q06187); assay: BTK degradation assay using the HiBiT Method (Nano-Glo HiBiT Lytic Assay, GM01501.3 cells); format: cell-based; conditions: HiBiT Degradation on GM01501.3 BTK @ 6 hours
T1 construct: The GM01501.3 cell line endogenously expresses BTK with a HiBiT fusion tag via CRISPR knock-in at its C-terminal region; endogenous in cells; host or cells: GM01501.3 (GM01501 cells engineered by CRISPR knock-in of HiBiT at the BTK locus)
Summary of the method: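 Degradation read-out: HiBiT luminescence after lytic reagent addition, giving DC50. Compounds dosed from 10 μM in 11 half-log steps (duplicate) onto GM01501.3 cells, whose endogenous BTK carries a C-terminal HiBiT knock-in tag; 6 h exposure, 37 °C, 5% CO2.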

T1 sequence (Q06187 whole entry, the tested form may be a part): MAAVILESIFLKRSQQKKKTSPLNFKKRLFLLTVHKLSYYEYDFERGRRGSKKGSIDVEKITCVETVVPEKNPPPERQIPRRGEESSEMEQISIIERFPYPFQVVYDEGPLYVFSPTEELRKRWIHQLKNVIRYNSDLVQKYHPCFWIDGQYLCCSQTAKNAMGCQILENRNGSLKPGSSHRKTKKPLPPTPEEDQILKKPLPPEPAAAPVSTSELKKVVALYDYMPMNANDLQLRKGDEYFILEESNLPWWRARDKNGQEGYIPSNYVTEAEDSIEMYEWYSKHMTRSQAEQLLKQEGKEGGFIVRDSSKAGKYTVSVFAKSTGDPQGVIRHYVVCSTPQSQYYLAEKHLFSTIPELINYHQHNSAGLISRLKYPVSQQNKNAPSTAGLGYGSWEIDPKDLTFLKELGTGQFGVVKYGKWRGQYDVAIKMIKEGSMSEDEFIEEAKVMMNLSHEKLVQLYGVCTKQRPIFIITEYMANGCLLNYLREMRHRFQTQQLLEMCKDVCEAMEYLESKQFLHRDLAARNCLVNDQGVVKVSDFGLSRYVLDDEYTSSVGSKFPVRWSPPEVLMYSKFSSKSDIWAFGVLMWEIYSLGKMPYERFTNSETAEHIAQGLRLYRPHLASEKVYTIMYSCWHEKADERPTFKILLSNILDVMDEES

Row | SMILES | DC50 [nM]
1 | CC(C)(C)c1nc(C(=O)NCc2ccc(-c3ncnn4cc(CCN5CCC(n6ccc(NC7CCC(=O)NC7=O)n6)CC5)cc34)cc2F)no1 (centres unmarked) [Example 123, 5-tert-butyl-N-[[4-[6-[2-[4-[3-[(2,6-dioxo-3-piperidyl)amino]pyrazol-1-yl]-1-piperidyl]ethyl]pyrrolo[2,1-f][1,2,4]triazin-4-yl]-2-fluoro-phenyl]methyl]-1,2,4-oxadiazole-3-carboxamide] | 100 to 500
2 | Cc1cc(-c2ncnn3cc(-c4ccc(CN5CCC(c6ccc(NC7CCC(=O)NC7=O)cc6)CC5)cc4)cc23)ccc1CNC(=O)N1CC(OC(C)(C)C)C1 (centres unmarked) [Example 97, 3-tert-butoxy-N-[[4-[6-[4-[[4-[4-[(2,6-dioxo-3-piperidyl)amino]phenyl]-1-piperidyl]methyl]phenyl]pyrrolo[2,1-f][1,2,4]triazin-4-yl]-2-methyl-phenyl]methyl]azetidine-1-carboxamide] | < 100
3 | Cc1cc(-c2ncnn3cc(-c4ccc(CN5CCC(c6ccc(NC7CCC(=O)NC7=O)cc6)CC5)cc4)cc23)ccc1CNC(=O)c1ccc(C(F)F)cn1 (centres unmarked) [Example 96, 5-(difluoromethyl)-N-[[4-[6-[4-[[4-[4-[(2,6-dioxo-3-piperidyl)amino]phenyl]-1-piperidyl]methyl]phenyl]pyrrolo[2,1-f][1,2,4]triazin-4-yl]-2-methyl-phenyl]methyl]pyridine-2-carboxamide] | < 100
4 | Cc1cc(-c2ncnn3cc(-c4ccc(OCCN5CCC(c6ccc(CN7CCC(=O)NC7=O)cc6)CC5)cc4)cc23)ccc1CNC(=O)c1noc(C(C)(C)C)n1 [Example 106, 5-tert-butyl-N-[[4-[6-[4-[2-[4-[4-[(2,4-dioxohexahydropyrimidin-1-yl)methyl]phenyl]-1-piperidyl]ethoxy]phenyl]pyrrolo[2,1-f][1,2,4]triazin-4-yl]-2-methyl-phenyl]methyl]-1,2,4-oxadiazole-3-carboxamide] | < 100
5 | Cc1cc(-c2ncnn3cc(-c4ccc5c(c4)CCN(CCCc4ccc(NC6CCC(=O)NC6=O)cc4)C5)cc23)ccc1CNC(=O)c1noc(C(C)(C)C)n1 (centres unmarked) [Example 58, 5-tert-butyl-N-[[4-[6-[2-[3-[4-[(2,6-dioxo-3-piperidyl)amino]phenyl]propyl]-3,4-dihydro-1H-isoquinolin-6-yl]pyrrolo[2,1-f][1,2,4]triazin-4-yl]-2-methyl-phenyl]methyl]-1,2,4-oxadiazole-3-carboxamide] | < 100
6 | Cc1cc(-c2ncnn3cc(CCN4CCC(c5ccc6c7c(cccc57)C(=O)N6C5CCC(=O)NC5=O)CC4)cc23)ccc1CNC(=O)c1noc(C(C)(C)C)n1 (centres unmarked) [Example 274, 5-(tert-butyl)-N-(4-(6-(2-(4-(1-(2,6-dioxopiperidin-3-yl)-2-oxo-1,2-dihydrobenzo[cd]indol-6-yl)piperidin-1-yl)ethyl)pyrrolo[2,1-f][1,2,4]triazin-4-yl)-2-methylbenzyl)-1,2,4-oxadiazole-3-carboxamide] | < 100
7 | Cc1cc(-c2ncnn3cc(-c4ccc(CN5CCC(c6ccc(NC7CCC(=O)NC7=O)cc6)CC5)cc4)cc23)ccc1CNC(=O)CCC(C)(C)C (centres unmarked) [Example 81, N-[[4-[6-[4-[[4-[4-[(2,6-dioxo-3-piperidyl)amino]phenyl]-1-piperidyl]methyl]phenyl]pyrrolo[2,1-f][1,2,4]triazin-4-yl]-2-methyl-phenyl]methyl]-4,4-dimethyl-pentanamide] | < 100
8 | Cc1cc(-c2ncnn3cc(N4CCN(C(=O)C5CC6(CCN(C(=O)c7ccc(OC8CCC(=O)NC8=O)cc7)C6)C5)CC4)cc23)ccc1CNC(=O)c1noc(C(C)(C)C)n1 (centres unmarked) [Example 178, 5-(tert-butyl)-N-(4-(6-(4-(6-(4-((2,6-dioxopiperidin-3-yl)oxy)benzoyl)-6-azaspiro[3.4]octane-2-carbonyl)piperazin-1-yl)pyrrolo[2,1-f][1,2,4]triazin-4-yl)-2-methylbenzyl)-1,2,4-oxadiazole-3-carboxamide] | < 100
9 | Cc1cc(-c2ncnn3cc(CCCCN4CC(c5ccc(NC6CCC(=O)NC6=O)cc5)C4)cc23)ccc1CNC(=O)c1noc(C(C)(C)C)n1 (centres unmarked) [Example 148, 5-tert-butyl-N-[[4-[6-[4-[3-[4-[(2,6-dioxo-3-piperidyl)amino]phenyl]azetidin-1-yl]butyl]pyrrolo[2,1-f][1,2,4]triazin-4-yl]-2-methyl-phenyl]methyl]-1,2,4-oxadiazole-3-carboxamide] | 100 to 500
10 | CCc1ccc(C(=O)NCc2ccc(-c3ncnn4cc(-c5ccc(CN6CCC(c7ccc(NC8CCC(=O)NC8=O)cc7)CC6)cc5)cc34)cc2C)cc1 (centres unmarked) [Example 67, N-[[4-[6-[4-[[4-[4-[(2,6-dioxo-3-piperidyl)amino]phenyl]-1-piperidyl]methyl]phenyl]pyrrolo[2,1-f][1,2,4]triazin-4-yl]-2-methyl-phenyl]methyl]-4-ethyl-benzamide] | < 100
11 | Cc1cc(-c2ncnn3cc(CCCCN4CCC(c5ccc(NC6CCC(=O)NC6=O)cc5)C(F)(F)C4)cc23)ccc1CNC(=O)c1noc(C(C)(C)C)n1 (centres unmarked) [Example 132, 5-tert-butyl-N-[[4-[6-[4-[4-[4-[(2,6-dioxo-3-piperidyl)amino]phenyl]-3,3-difluoro-1-piperidyl]butyl]pyrrolo[2,1-f][1,2,4]triazin-4-yl]-2-methyl-phenyl]methyl]-1,2,4-oxadiazole-3-carboxamide] | < 100

The next lines start with the values.

Row | DC50 [nM] | SMILES
12 | < 100 | COc1cc(-c2cc3c(-c4ccc(CNC(=O)c5noc(C(C)(C)C)n5)c(C)c4)ncnn3c2)ccc1CN1CCC(c2ccc(NC3CCC(=O)NC3=O)cc2)CC1 (centres unmarked) [Example 16, 5-tert-butyl-N-[[4-[6-[4-[[4-[4-[(2,6-dioxo-3-piperidyl)amino]phenyl]-1-piperidyl]methyl]-3-methoxy-phenyl]pyrrolo[2,1-f][1,2,4]triazin-4-yl]-2-methyl-phenyl]methyl]-1,2,4-oxadiazole-3-carboxamide]
13 | < 100 | Cc1cc(-c2ncnn3cc(-c4cccc(CN5CCC(c6ccc(NC7CCC(=O)NC7=O)cc6)CC5)c4)cc23)ccc1CNC(=O)c1noc(C(C)(C)C)n1 (centres unmarked) [Example 50, 5-tert-butyl-N-[[4-[6-[3-[[4-[4-[(2,6-dioxo-3-piperidyl)amino]phenyl]-1-piperidyl]methyl]phenyl]pyrrolo[2,1-f][1,2,4]triazin-4-yl]-2-methyl-phenyl]methyl]-1,2,4-oxadiazole-3-carboxamide]
14 | < 100 | CC(C)(C)c1nc(C(=O)NCc2ccc(-c3ncnn4cc(CCCCN5CCN(c6ccc(NC7CCC(=O)NC7=O)cn6)CC5)cc34)cc2F)no1 (centres unmarked) [Example 139, 5-tert-butyl-N-[[4-[6-[4-[4-[5-[(2,6-dioxo-3-piperidyl)amino]-2-pyridyl]piperazin-1-yl]butyl]pyrrolo[2,1-f][1,2,4]triazin-4-yl]-2-fluoro-phenyl]methyl]-1,2,4-oxadiazole-3-carboxamide]
15 | < 100 | Cc1cc(-c2ncnn3cc(CCN4CCC(c5ccc(NC6CCC(=O)NC6=O)nc5)CC4)cc23)ccc1CNC(=O)c1noc(C(C)(C)C)n1 (centres unmarked) [Example 250, 5-(tert-butyl)-N-(4-(6-(2-(4-(6-((2,6-dioxopiperidin-3-yl)amino)pyridin-3-yl)piperidin-1-yl)ethyl)pyrrolo[2,1-f] [1,2,4]triazin-4-yl)-2-methylbenzyl)-1,2,4-oxadiazole-3-carboxamide]
16 | < 100 | Cc1cc(-c2ncnn3cc(-c4nc(CN5CCC(c6ccc(C7CCC(=O)NC7=O)cc6)CC5)co4)cc23)ccc1CNC(=O)c1noc(C(C)(C)C)n1 (centres unmarked) [Example 219, 5-(tert-butyl)-N-(4-(6-(4-((4-(4-(2,6-dioxopiperidin-3-yl)phenyl)piperidin-1-yl)methyl)oxazol-2-yl)pyrrolo[2,1-f][1,2,4]triazin-4-yl)-2-methylbenzyl)-1,2,4-oxadiazole-3-carboxamide]
17 | < 100 | Cc1cc(-c2ncnn3cc(-c4ccc(CCN5CCC(c6ccc(C7CCC(=O)NC7=O)cc6)C(F)(F)C5)cc4)cc23)ccc1CNC(=O)c1noc(C(C)(C)C)n1 (centres unmarked) [Example 51, 5-tert-butyl-N-[[4-[6-[4-[2-[4-[4-(2,6-dioxo-3-piperidyl)phenyl]-3,3-difluoro-1-piperidyl]ethyl]phenyl]pyrrolo[2,1-f][1,2,4]triazin-4-yl]-2-methyl-phenyl]methyl]-1,2,4-oxadiazole-3-carboxamide]
